Experimental findings from ChEMBL document CHEMBL1201862, “PubChem BioAssay data set” (2004) are described below.

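Protocol summary: plate cells (96-well), add compound at 5 concentrations, incubate 48 h, interpolate endpoints linearly. Abbreviation: GI50, concentration required for 50% inhibition of growth.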 Active and inactive are the calls of the source. No stated cut-off is given here; in the data, active = GI50 up to about 1.1 µM and inactive = higher.

Among the test systems are DLD-1; HCT-116; HOP-92; HT-29; KM12; M14; NCI-H522; OVCAR-5; OVCAR-8; RPMI-8226; SF-268; SF-295; SNB-19; SW-620; U-251; UACC-257; UACC-62; EKVX; LOX IMVI; SN12C.
What all share (assay): inhibition of tumour cell growth, NCI panel, 48 h

For the compound `COc1ccc(C(=O)Cc2c(C(=O)c3ccccc3)c3ccccc3n2C(=O)c2ccccc2)cc1`, the GI50 was 74 µM (inactive) in the assay on DLD-1; 37.2 µM (inactive) in the assay with HCT-116; 25.2 µM (inactive) in the assay on HOP-92; > 100 µM (inactive) in the assay on HT-29; 53.8 µM (inactive) with KM12; > 100 µM (inactive) in the assay with M14. In addition, the GI50 is 47.1 µM (inactive) with NCI-H522; > 100 µM (inactive) with OVCAR-5; > 100 µM (inactive) in the assay with OVCAR-8; 11.9 µM (inactive) in the assay on RPMI-8226; > 100 µM (inactive) in the assay on SF-268; 31.3 µM (inactive) in the assay on SF-295. Besides, the GI50 is 92 µM (inactive) in the assay on SNB-19; 29.8 µM (inactive) with SW-620; 78.2 µM (inactive) with U-251; > 100 µM (inactive) in the assay with UACC-257; 94 µM (inactive) in the assay with UACC-62.

`CN(C)CCNC(=O)c1cccc2c1nc(-c1ccncc1)c1ccccc12`: the GI50 with DLD-1 was 2.38 µM (inactive); in the assay on EKVX it was 2.47 µM (inactive); with HCT-116, 1.46 µM (inactive); with HOP-92, 2.09 µM (inactive); in the assay with HT-29, 3.32 µM (inactive); in the assay on KM12, 5.28 µM (inactive). The GI50 in the assay on LOX IMVI was 1.35 µM (inactive); in the assay on M14 it was 4.83 µM (inactive); with OVCAR-5 it was 4.88 µM (inactive); in the assay on OVCAR-8, 3.06 µM (inactive); in the assay on SF-268 it was 5.53 µM (inactive); in the assay with SF-295, 2.85 µM (inactive). Further, the GI50 in the assay with SN12C is 1.58 µM (inactive); in the assay on SNB-19 it was 3.94 µM (inactive); in the assay with SW-620 it was 1.11 µM (active); in the assay with U-251, 2.34 µM (inactive); in the assay with UACC-257, 3.01 µM (inactive); in the assay with UACC-62, 1.88 µM (inactive).

Regarding `CCOc1ccc2c(c1)[n+]([O-])c(S(=O)(=O)c1ccc(C)cc1)c(N)[n+]2[O-]`, the GI50 with DLD-1, in the assay on EKVX, with HCT-116, in the assay with HOP-92, with HT-29 and in the assay with KM12 was > 100 µM (inactive) each time. Further, the GI50 is > 100 µM (inactive) with M14; 49.2 µM (inactive) with NCI-H522; > 100 µM (inactive) with OVCAR-5; > 100 µM (inactive) in the assay with OVCAR-8; > 100 µM (inactive) in the assay on RPMI-8226; > 100 µM (inactive) with SF-268. For the same compound, the GI50 with SF-295, in the assay on SNB-19, in the assay with SW-620, in the assay on U-251, in the assay on UACC-257 and in the assay on UACC-62 was > 100 µM (inactive) each time.

For the compound `Cc1ccc(Oc2ccc(C)cc2N)cc1`, the GI50 is 66.1 µM (inactive) with DLD-1; 71 µM (inactive) in the assay with EKVX; > 100 µM (inactive) in the assay on HCT-116; 32.3 µM (inactive) in the assay with HOP-92; 52.5 µM (inactive) in the assay with HT-29; > 100 µM (inactive) in the assay with KM12. Further, the GI50 was > 100 µM (inactive) with LOX IMVI; > 100 µM (inactive) in the assay with M14; 68.4 µM (inactive) in the assay on OVCAR-5; > 100 µM (inactive) in the assay with OVCAR-8; 97.9 µM (inactive) in the assay on RPMI-8226; 97.7 µM (inactive) in the assay with SF-268. Also, the GI50 is 96.4 µM (inactive) in the assay with SF-295; 97.7 µM (inactive) in the assay on SN12C; > 100 µM (inactive) in the assay with SNB-19; > 100 µM (inactive) in the assay on SW-620; 30.5 µM (inactive) in the assay on U-251; 80.9 µM (inactive) in the assay with UACC-257. Moreover, the GI50 with UACC-62 was > 100 µM (inactive).

Take `O=[N+]([O-])c1cccc(C2=NOC3C4CCC(C4)C23)c1` (stereo unspecified): the GI50 with DLD-1, in the assay on HCT-116, in the assay with HOP-92, in the assay on HT-29, with KM12 and in the assay with M14 was > 100 µM (inactive) in each case. The GI50 in the assay with NCI-H522, with OVCAR-5, with OVCAR-8, with RPMI-8226, in the assay with SF-268 and in the assay with SF-295 was > 100 µM (inactive) in each case. For the same compound, the GI50 with SN12C is > 100 µM (inactive); in the assay with SW-620, 22.3 µM (inactive); in the assay with U-251 it was > 100 µM (inactive); in the assay with UACC-257, > 100 µM (inactive).

`CCC1CN2CCc3c([nH]c4ccccc34)C2C[C@@H]1CC(=O)N(C)C` (stereo partly specified): the GI50 with DLD-1 was > 100 µM (inactive); in the assay with EKVX, > 100 µM (inactive); with HCT-116, > 100 µM (inactive); in the assay with HOP-92, 51.6 µM (inactive); in the assay on HT-29 it was > 100 µM (inactive); with KM12, > 100 µM (inactive). For the same compound, the GI50 with LOX IMVI, in the assay with M14, in the assay on NCI-H522, in the assay on OVCAR-5, in the assay with OVCAR-8 and in the assay with SF-268 was > 100 µM (inactive) throughout. Also, the GI50 with SF-295, in the assay on SN12C, in the assay with SNB-19, in the assay on SW-620, in the assay on U-251 and in the assay with UACC-257 was > 100 µM (inactive) in each case.

Regarding `Cc1nc2ccccc2nc1-c1ccc(/N=[N+](\[O-])c2ccc(-c3nc4ccccc4nc3C)cc2)cc1`, the GI50 in the assay with EKVX was > 100 µM (inactive); in the assay with HCT-116, > 79.8 µM (inactive); in the assay on HOP-92, > 39.5 µM (inactive); in the assay with HT-29, > 100 µM (inactive); with KM12 it was > 100 µM (inactive); in the assay on LOX IMVI, > 100 µM (inactive). Further, the GI50 was > 96.2 µM (inactive) in the assay with M14; > 63.4 µM (inactive) with NCI-H522; > 100 µM (inactive) in the assay with OVCAR-5; 50.1 µM (inactive) in the assay on OVCAR-8; > 100 µM (inactive) in the assay on RPMI-8226; 36.6 µM (inactive) with SF-268. In addition, the GI50 with SF-295 is 59.6 µM (inactive); with SN12C it was > 92.7 µM (inactive); in the assay with SNB-19 it was 48.8 µM (inactive); with SW-620, > 100 µM (inactive); with U-251, 27.5 µM (inactive); with UACC-257, > 100 µM (inactive). In addition, the GI50 with UACC-62 was > 93.5 µM (inactive).

For the compound `CCCN(CCC)C(=S)N/N=C/c1cccc(C)n1`, the GI50 was 0.552 µM (active) in the assay on EKVX; < 0.01 µM (active) in the assay with HCT-116; 0.391 µM (active) with HOP-92; < 0.01 µM (active) with HT-29; 0.107 µM (active) in the assay with KM12; 0.141 µM (active) with LOX IMVI. In addition, the GI50 in the assay with M14 was < 0.01 µM (active); in the assay with NCI-H522, 0.0194 µM (active); in the assay on OVCAR-5 it was < 0.01 µM (active); in the assay on OVCAR-8, 0.0217 µM (active); in the assay with RPMI-8226, 0.0239 µM (active); with SF-268, 0.023 µM (active). The GI50 in the assay with SF-295 is 0.258 µM (active); in the assay on SN12C it was 0.122 µM (active); in the assay on SNB-19, 0.533 µM (active); in the assay on SW-620 it was 0.054 µM (active); in the assay on U-251, < 0.01 µM (active); with UACC-257, < 0.01 µM (active). For the same compound, in the assay on UACC-62, the GI50 is 0.303 µM (active).

Consider `CCOC(=O)CCC(NC(=O)C(N)Cc1ccc(N(CCCl)CCCl)cc1)C(=O)OCC` (stereo unspecified), for which the GI50 was 2.36 µM (inactive) with EKVX; 0.375 µM (active) in the assay with HCT-116; 0.253 µM (active) with HOP-92; 0.716 µM (active) in the assay with HT-29; 1.52 µM (inactive) in the assay on KM12; 0.187 µM (active) with LOX IMVI. In addition, the GI50 in the assay with M14 was 0.225 µM (active); in the assay with NCI-H522, 0.285 µM (active); in the assay on OVCAR-5 it was 2.47 µM (inactive); in the assay with OVCAR-8 it was 0.867 µM (active); in the assay with RPMI-8226, 1.82 µM (inactive); in the assay with SF-268, 0.592 µM (active). For the same compound, the GI50 was 2.88 µM (inactive) in the assay with SF-295; 1.51 µM (inactive) in the assay on SN12C; 4.09 µM (inactive) in the assay with SNB-19; 1.29 µM (inactive) in the assay on SW-620; 1.85 µM (inactive) in the assay on U-251; 1.22 µM (inactive) in the assay on UACC-257. Further, in the assay with UACC-62, the GI50 was 0.34 µM (active).

Take `CC(=O)NNc1nc(C)c(C(/C=C/c2ccc(NC(C)=O)cc2)=N/NS(=O)(=O)c2ccc(C)cc2)s1`: the GI50 with EKVX, with HCT-116, in the assay on HOP-92, in the assay with HT-29, in the assay on KM12 and in the assay on LOX IMVI was > 100 µM (inactive) each time. Moreover, the GI50 in the assay on M14, with NCI-H522, with OVCAR-5, with OVCAR-8, with RPMI-8226 and in the assay with SF-268 was > 100 µM (inactive) each time. Also, the GI50 in the assay on SF-295 was 27.9 µM (inactive); in the assay with SN12C, > 100 µM (inactive); in the assay on SNB-19 it was > 100 µM (inactive); in the assay with SW-620 it was > 100 µM (inactive); with U-251, > 100 µM (inactive); in the assay on UACC-257, > 100 µM (inactive). Also, the GI50 in the assay with UACC-62 is > 100 µM (inactive).

For the compound `COC(=O)CCC(NC(=S)N/N=C(\C)c1cnc2ccccc2n1)C(=O)OC` (stereo unspecified), the GI50 was 29 µM (inactive) in the assay with DLD-1; 12.6 µM (inactive) in the assay with EKVX; 18.3 µM (inactive) with HCT-116; 14.2 µM (inactive) in the assay on HT-29; 26 µM (inactive) with KM12; 23.2 µM (inactive) in the assay with LOX IMVI. Besides, the GI50 in the assay with M14 was 30.8 µM (inactive); in the assay on NCI-H522 it was 11.2 µM (inactive); with OVCAR-5, 16.3 µM (inactive); in the assay with OVCAR-8, 46.9 µM (inactive); in the assay with RPMI-8226, 11.1 µM (inactive); with SF-268, 29.7 µM (inactive). The GI50 with SF-295 was 49.8 µM (inactive); in the assay with SN12C, 60.1 µM (inactive); with SNB-19 it was > 100 µM (inactive); with SW-620, 20.8 µM (inactive); with U-251 it was 43.2 µM (inactive); in the assay with UACC-257, 49.5 µM (inactive). In addition, the GI50 with UACC-62 is 16.9 µM (inactive).
